The text below walks through data of PubChem BioAssay AID700 (NMMLSC, 2007).

Active and inactive are the calls of the source. No rule for the calls is given here.

This experiment has as its system bacterial quorum sensing reporter inhibition. Kind of experiment: blockers of quorum-sensing reporter signal in bacteria – dose response (AID 700).

On to `COc1ccc(O)c(C(=O)CC(=O)c2ccc(F)cc2)c1`, for which the IC50 (in general, the concentration at which inhibition is half-maximal) is > 20 µM (inactive).
`COc1ccc(OC)c2[nH]c(=O)c(CCNC(=O)C(C)C)cc12`: the IC50 is > 20 µM (inactive).
In the case of `COc1cccc(Oc2cnc(N)nc2-c2ccc(OC)cc2O)c1` it was > 20 µM (inactive); in that of `O=C(NCCCc1ccccc1)c1cnc2n(c1=O)CCS2`, > 20 µM (inactive); in that of `Cc1ccc(N2CC(C(=O)NC3=NCCS3)CC2=O)cc1` (stereo not given), > 20 µM (inactive).
Then `O=C(CN1C(=O)CC(c2ccco2)Sc2ccccc21)Nc1ccc2c(c1)OCCO2` (stereo not given), with > 20 µM (inactive); and `CCc1c(C)nc(SCC(=O)Nc2ccc(Br)cc2)[nH]c1=O`, with > 20 µM (inactive).
In the case of `COc1ccc(NC(=O)c2c(SC)nsc2SC)cc1` it was > 20 µM (inactive).
Consider `CCc1ccc(S(=O)(=O)c2n[nH]n3c2nc(=O)c2ccccc23)cc1`, for which the concentration for half-maximal inhibition (IC50) is 1.46 µM.
As to `COc1cc2[nH]c(=O)n(CCC(=O)N3CCN(c4cc(Cl)ccc4C)CC3)c(=O)c2cc1OC`, the IC50 is > 20 µM (inactive).
Regarding `CC1CN(c2nc3ccccc3nc2C(C#N)C(=O)OC2CCCCC2)CC(C)O1` (stereo not given), the IC50 was > 20 µM (inactive).
In the case of `Cc1cc(C)c2cc(CN(CCN3CCCC3)C(=O)Nc3ccc(F)cc3)c(=O)[nH]c2c1` it was > 20 µM (inactive); in that of `CC(C)CC(NC(=O)c1ccco1)C(=O)Nc1ccc2c(c1)OCCO2` (stereo not given), > 20 µM (inactive); in that of `O=C(NCCN1CCN(c2ccccc2)CC1)c1cccn2c(=O)c3ccccc3nc12`, > 20 µM (inactive).
Turning to `O=C(Nc1nc2c(s1)CCc1ccccc1-2)c1cccs1`, the IC50 is > 20 µM (inactive).
Then `Cc1cccc2sc(NC(=O)CN(C)S(=O)(=O)c3ccc(Br)s3)nc12`, with > 20 µM (inactive); and `CCc1c(C)sc(NC(=O)c2cc(C)on2)c1C#N`, with > 20 µM (inactive); and `Cc1ccc(-c2nc(CS(=O)CC(=O)NCCC(C)C)c(C)o2)cc1` (stereo not given), with > 20 µM (inactive).
Then `Oc1ccc(-c2nc3ncccn3c2Nc2ccc3c(c2)OCCO3)cc1`, with > 20 µM (inactive); and `Cc1ccc2[nH]c(=O)c(CN(CCCN(C)C)C(=O)Nc3cccc(Cl)c3)cc2c1`, with > 20 µM (inactive); and `COC(=O)c1ccc(CSc2nc3c(cnn3-c3ccc(Cl)cc3)c(=O)[nH]2)o1`, with > 20 µM (inactive).
In the case of `CCOC(=O)C1=C(C)NC(C)=C(C(=O)OC)C1c1cccc(Cl)c1Cl` (stereo not given) it was > 20 µM (inactive).
Take `CC1CCCCN1S(=O)(=O)c1ccc(C(=O)Nc2nnc(-c3cccs3)o2)cc1` (stereo not given): the IC50 was > 20 µM (inactive).
For `COc1ccc(N(CC(=O)Nc2nc3ccc(C)cc3s2)S(=O)(=O)c2c(C)nn(C)c2C)cc1`, the IC50 was > 20 µM (inactive).
With `CCCCOC(=O)Cn1c(=O)oc2ccc(C)cc21`, the IC50 is > 20 µM (inactive).
On to `CC1(C)S[C@@H]2[C@H](NC(=O)[C@H](N)c3ccccc3)C(=O)N2[C@H]1C(=O)O`, for which the IC50 was > 20 µM (inactive).
In the case of `Clc1ccc(OCc2nnc3n2N=C(c2ccc4c(c2)OCCO4)CS3)c(Cl)c1` it was > 20 µM (inactive); in that of `O=C(NC(=O)c1cccc(F)c1)OC[C@@H]1CCCN2CCCC[C@H]12`, > 20 µM (inactive); in that of `CC(C)[C@@]1(NC(=O)[C@@H]2C[C@@H]3c4cccc5[nH]cc(c45)C[C@H]3N(C)C2)O[C@@]2(O)[C@@H]3CCCN3C(=O)[C@H](Cc3ccccc3)N2C1=O`, > 20 µM (inactive).
Then `COc1ccc(Nc2nc(-c3sc(N)nc3C)cs2)cc1`, with > 20 µM (inactive); and `CCn1c2ccccc2c2cc(NC(=O)CSc3nnc(C4CC4)n3Cc3ccco3)ccc21`, with > 20 µM (inactive); and `CC[C@H]1OC(=O)C[C@@H](O)[C@H](C)[C@@H](O[C@@H]2O[C@H](C)C[C@H](N(C)C)[C@H]2O)[C@@H](CC=O)C[C@@H](C)C(=O)C=C[C@]2(C)O[C@H]2[C@@H]1C`, with 1.14 µM.
Then `Cc1cccc(Nc2ccccc2C(=O)O)c1C`, with 1.02 µM; and `COC(=O)c1[nH]nc2c1C(=O)N(C1CCCCC1)C2=O`, with 12.7 µM (inactive).
Turning to `O=C1CS/C(=N\C(=O)N2c3ccccc3Sc3ccccc32)N1`, the half-inhibitory concentration (IC50) was 1.42 µM.
In the case of `CC(C)N=c1cc2n(-c3ccc(Cl)cc3)c3ccccc3nc-2cc1Nc1ccc(Cl)cc1` it was > 20 µM (inactive); in that of `Cn1c(=O)n(CCc2ccccc2)c(=O)c2c1nc1n2CCN1Cc1ccco1`, > 20 µM (inactive).
As to `O=C(OCC(O)CO)c1ccccc1Nc1ccnc2cc(Cl)ccc12` (stereo not given), the IC50 was > 20 µM (inactive).
Then `O=C(NCC(c1cccnc1)N1CCN(c2ccccc2F)CC1)c1cccc(Cl)c1` (stereo not given), with 1.97 µM; and `O=C(O)CCc1cc(I)c(Oc2ccc(O)c(I)c2)c(I)c1`, with 1.78 µM.
Consider `c1csc(CCNc2ncnc3sc4c(c23)CCC4)c1`, for which the IC50 is > 20 µM (inactive).
With `Cc1ccc2[nH]c(=O)c(CN(CCCN(C)C)C(=O)Nc3ccc(Cl)cc3)cc2c1`, the IC50 is 9.03 µM.
As to `CCOc1ccc(NC(=O)C2CCCN(S(=O)(=O)c3c(C)nn(C)c3C)C2)cc1` (stereo not given), the IC50 was > 20 µM (inactive).
In the case of `CC(C)Cc1cc(C(=O)Nc2sc3c(c2C#N)CCCC3)no1` it was > 20 µM (inactive).
Then `CCc1oc2ccccc2c1C(=O)c1cc(Br)c(O)c(Br)c1`, with 0.74 µM; and `O=C(O)c1ccccc1Nc1cccc(C(F)(F)F)c1`, with > 20 µM (inactive).
In the case of `CCOC(=O)Cn1c(=O)oc2cc(S(=O)(=O)Nc3ccc(N(CC)CC)cc3C)ccc21`, the IC50 is > 20 µM (inactive).
In the case of `Cc1ccc(C)c(N2CCN(C(=O)CCCCn3c(=O)[nH]c4ccccc4c3=O)CC2)c1` it was > 20 µM (inactive).
In the case of `CCOC(=O)C(C)(C)Sc1nc2c(cnn2-c2ccc(C)cc2)c(=O)[nH]1` it was > 20 µM (inactive).
In the case of `CC(C)CCOP(=O)(c1ccc(N(C)C)cc1)C(O)c1ccccc1F` (stereo not given) it was > 20 µM (inactive); in that of `N#Cc1c(NC(NC(=O)c2ccco2)C(=O)c2ccccc2)sc2c1CCCC2` (stereo not given), > 20 µM (inactive); in that of `Nc1c(C(O)(C(F)(F)F)C(F)(F)F)ccc2ccccc12`, > 20 µM (inactive).
`CCOC(=O)N1CCC(NC(=O)Cn2nc(Cc3ccncc3)c3ccccc3c2=O)CC1`: the 50% inhibitory concentration (IC50) was 5.8 µM.
Then `CCc1ccc(N/C(SCc2cccc(F)c2)=C(/C#N)C(=O)NCc2ccco2)cc1`, with > 20 µM (inactive); and `O=C(CCCCn1c(=O)[nH]c2ccccc2c1=O)N1CCN(c2cccc(C(F)(F)F)c2)CC1`, with > 20 µM (inactive).
For `O=C(c1ccc(Br)o1)N1CCN(c2ccc3nnc(-c4ccccc4)n3n2)CC1`, the IC50 was > 20 µM (inactive).
As to `CCc1ccc2[nH]c(=O)c(CN(CCCN3CCOCC3)C(=O)Nc3cccc(Cl)c3)cc2c1`, the IC50 is > 20 µM (inactive).
`CCc1ccc2[nH]c(=O)c(CN(CCCN3CCOCC3)C(=O)Nc3ccc(F)cc3)cc2c1`: the IC50 is > 20 µM (inactive).
In the case of `Cc1ccc(NC(=O)c2cc(C)on2)cc1` it was > 20 µM (inactive); in that of `Cn1cccc1Cc1nnc(SCC(=O)Nc2ccccc2)n1-c1ccc(F)cc1`, > 20 µM (inactive).
